Assay [1] concerns 56-kD α-like egg polypeptide (sea urchin egg CaM kinase). Put plainly: Endogenous phosphorylation in sea urchin egg calmodulin-depleted cytosol. In kind it is biochemical, L. pictus (sea urchin). Particulars: 50 μM peptide in Fig. 5 A.
The test system of assay [2] is sea urchin egg CaM kinase. Put plainly: Autocamtide-2 phosphorylation by sea urchin egg extracts. In kind it is biochemical, L. pictus (sea urchin).
For assay [3], the system named is rat brain CaM kinase. Put plainly: Autocamtide-2 phosphorylation by purified rat brain CaM kinase. In kind it is biochemical.
In assay [4] the test system is L. pictus eggs (nuclear envelope breakdown). Briefly: Nuclear envelope breakdown. In kind it is cell-based, L. pictus (sea urchin). The following applies: for Delay of NEB (fraction of eggs) / Duration of delay of NEB / Normal NEB (fraction of eggs): Table I, injected before fertilization.
For assay [5], the system named is rat brain CaM kinase. Put plainly: Autophosphorylation of rat brain CaM kinase. In kind it is biochemical. The following applies: 50 μM peptide in Fig. 5 B.
The mark [6] stands for this setting: higher concentrations, over 4% of the cell volume.

For the substance “CaMK(284-302): control peptide, lacks a critical region of the autoinhibitory domain and therefore does not inhibit CaM kinase (QETVDCLKKFNARRKLKGA; UniProt P11275 284-302, looked up, fragment)”, the “endogenous phosphorylation of the α-like subunit (effect in words)” value in assay [1] is on record as “only marginally affected”. In assay [2] (Discussion summary), the “inhibition of egg kinase (in words)” value was “very weak inhibitor”. Besides, in assay [2] (calmodulin-depleted cytosol fractions, Fig. 4), the “phosphorylation of autocamtide-2 (effect in words)” value was “not affected”. Further, in assay [2] (sea urchin egg extracts, concentrations up to 100 μM, Fig. 4), the “inhibitory effects on phosphorylation of autocamtide-2 (in words)” value is given as “no apparent inhibitory effects”. In addition, the “inhibition of brain kinase (in words)” value in assay [3] (Discussion summary) was “very weak inhibitor”. In addition, in assay [3] (Fig. 4), the “inhibition of rat brain kinase (in words)” value is listed as “does not inhibit rat brain kinase”. The “effect on NEB (in words)” value in assay [4] (Discussion summary) is on record as “minimal effects on NEB”. In assay [4] (1.7-3.5% vol, 60-190 μM), the “Delay of NEB (fraction of eggs)” value is 1/9, the “Duration of delay of NEB” value is 9 min and the “Normal NEB (fraction of eggs)” value is given as 8/9. In assay [4] (4.1-4.8% vol, 220-260 μM), the “Delay of NEB (fraction of eggs)” value is 3/4, the “Duration of delay of NEB” value is 11 to 27 min and the “Normal NEB (fraction of eggs)” value is on record as 1/4. The “NEB (in words)” value in assay [4] (control peptide, text on Fig. 6) was “normal NEB”. For the same substance, the “delay of NEB in one case” value in assay [4] (estimated intracellular concentration 80 μM) was 9 min. Besides, the “delay of NEB” value in assay [4] (higher concentrations, injection volumes over 4% of the cell volume) was in the range of 11 to 27 min. Besides, in assay [4] (setting [6]), the “cases in which NEB proceeded normally” value is “one case” and the “cases with delayed NEB” value is “three of four”. Moreover, the “autophosphorylation of rat brain kinase (effect in words)” value in assay [5] is “only slightly inhibited”.

Values taken from paper PMC2116318 (The Journal of Cell Biology, 1990).
